We go through 4 molecules from patent publication EP0604352B1, “Aryl-substituted heterocyclic compounds” (N[…]/S, priority 1992, dated 1994).

For series [1], the target named is T1, reuptake of dopamine in synaptosomes of rat forebrain (Rattus norvegicus, UniProt P23977).
T1 construct: from tissue; host or cells: whole forebrain of male Wistar rats (crude synaptosomal supernatant)
The series is described as follows: inhibition of reuptake of dopamine (3H-dopamine) in synaptosomes. Format: biochemical.
Protocol: Fresh whole forebrain (at 0-4°C) from male Wistar rats (150-200 g) is homogenized in a glass homogenizer with a Teflon pestle in 20 x volumes 0.32M sucrose. The homogenate is centrifuged at 1000 x g (∼ 2900 rpm) for 10 min. The pellet is discarded and the supernatant is used for uptake assays. […] The samples are thoroughly mixed and incubated 10 min at 37°C followed by 2 min at 0°C. After incubation the samples are poured directly onto Whatman GF/C glass fibre filters under suction and immediately washed with 2 x 5 ml ice-cold 0.9% saline (NaCI) buffer. To the filter is added 3 ml of scintillation fluid, and the amount of radioactivity on the filters is determined by conventional liquid scintillation counting.

Series [2] has as its system haloperidol-induced catalepsy. The series is described as follows: catalepsy test for antiparkinsonian effects (antagonism of haloperidol-induced catalepsy). Format: in vivo. The settings on record: Rattus norvegicus; rats, test substance perorally 1 h before haloperidol 0.25 mg/kg subcutaneously; read-out: Minimum effective dose (peroral administration).
Description: The principle behind the haloperidol catalepsy test relates to the fact that the drug haloperidol (Serenase®) induces a receptor blockade of post synaptic dopamine receptors within the dopamine innervated corpus striatum of the rat brain. Following the blockade of active dopamine neurotransmission of the striatum a state of rigid immobility is induced, during which the rat can be placed in various totally abnormal immobile postures involving the forelegs and the whole body. […] The immobile posture effect induced by haloperidol closely resembles the state of Parkinson's disease in humans, which is due to a deficit of the dopaminergic innervation of the striatal complex (nucleus caudatus, putamen).
The day before testing, the rats weighing 200-250 g are housed 2 and 2 together in standard macrolon cages. […] The testing for the immobile catalepsy syndrome includes 4 tests performed in the following consecutive order: • 1) a vertical wire netting (40x40 cm high).The meshes (openings) of the nettings are approximately 1×2cm. • 2) a horizontal bar 9 cm above the floor • 3) a 9 cm high block (bar) • 4) a 3 cm high block (cork)
The rats were scored for the immobile cataleptic syndrome every 15 min in all 4 tests starting 15 min after the haloperidol injection. The intensity of catalepsy was tested during 10 sec in all tests and evaluated according to a criteria of 10 sec of total immobility for a score of 2.
The rat was placed in the middle of the vertical wire netting, then on the horizontal bar in an extended position with support by both the forelegs on the bar. The rats were then tested, whether or not they were willing to sit with the left or right forelegs placed first on the 9 and then on the 3 cm block for a duration of 10 sec. The maximum score for all 4 tests is thus a total of 8.
In series [3] the test system is excitatory locomotor and rearing responses. The series is described as follows: behavioural excitatory locomotor and rearing responses (side effect profile). Format: in vivo, rat. The settings on record: for Activity: locomotor and rearing, maximum peak effect, rats.
Protocol: Male SPF wistar rats weighing 200-250g were used for the gross behavioural studies. All rats were transferred the day before the experiments to individual cages made of wire netting (floor area 21 x 27 cm, height 16 cm) at a room temperature of 21-23° C. […] The behavioural elements here classified as rearing (i.e. standing up on the hindlegs) and locomotor activities (i.e. forward running activities) were registered, and the maximum peak effects were classified according to the following rating scale: • 0 = non-existent or very infrequent • + = weak and infrequent • ++ = moderate in intensity and frequency • +++ = very strong, continuous and intense
The degree of locomotor activity was also tested and measured quantitatively in photocell activity cages. For the measurement of this locomotor activity 100 g female rats are used.
The test system of series [4] is abnormal stereotyped behaviour. The series is described as follows: abnormal stereotyped behaviour, high intensity stereotypy (side effect profile). Format: in vivo, rat. As to conditions: rats. From the text:
Backward locomotion may occasionally be observed.

Series [5] deals with dopamine releasing properties. The series is described as follows: dopamine releasing properties.

Each structure is given as a SMILES string.

T1 sequence (P23977 whole entry): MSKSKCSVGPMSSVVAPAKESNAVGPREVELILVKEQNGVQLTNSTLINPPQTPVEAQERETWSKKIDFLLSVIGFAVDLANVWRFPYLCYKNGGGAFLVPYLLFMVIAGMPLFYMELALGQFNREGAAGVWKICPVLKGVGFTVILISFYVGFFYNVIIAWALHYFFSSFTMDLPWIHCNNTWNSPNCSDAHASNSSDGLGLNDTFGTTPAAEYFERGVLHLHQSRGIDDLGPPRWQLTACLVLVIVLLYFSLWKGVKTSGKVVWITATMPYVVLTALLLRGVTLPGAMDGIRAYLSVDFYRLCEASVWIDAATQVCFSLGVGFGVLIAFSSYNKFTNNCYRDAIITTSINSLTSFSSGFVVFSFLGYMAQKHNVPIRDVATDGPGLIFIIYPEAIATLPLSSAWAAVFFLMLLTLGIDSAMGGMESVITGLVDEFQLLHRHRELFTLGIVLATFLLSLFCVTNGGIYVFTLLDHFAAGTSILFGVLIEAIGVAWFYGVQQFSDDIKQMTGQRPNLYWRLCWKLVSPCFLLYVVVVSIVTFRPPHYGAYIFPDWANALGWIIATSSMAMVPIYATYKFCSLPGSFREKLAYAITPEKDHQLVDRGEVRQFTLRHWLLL

Consider `CN1[C@H]2CC[C@@H]1[C@H](c1nc(-c3ccccn3)no1)[C@@H](c1ccc(Cl)c(Cl)c1)C2` [(1R,2R,3S)-2-(3-(2-Pyridyl)-1,2,4-oxadiazol-5-yl)-3-(3,4-dichlorophenyl)-tropane], for which it took 115 nM to reach half-maximal inhibition in series [1] (IC50). In series [2], the minimal effective dose is more than 1 mg/kg. Moreover, the figures for the Activity in series [3] (10 mg/kg i.p.) and in series [4] (50 mg/kg i.p.) were 0 and “+”, respectively.
Consider `CN1[C@H]2CC[C@@H]1[C@H](c1nc(-c3cccs3)no1)[C@@H](c1ccc(Cl)c(Cl)c1)C2` [(1R,2R,3S)-2-(3-(2-Thienyl)-1,2,4-oxadiazol-5-yl)-3-(3,4-dichlorophenyl)-tropane], for which the IC50 in series [1] stood at 200 nM. Besides, in series [2], the minimal effective dose was more than 1 mg/kg. In addition, the Activity in series [3] (50 mg/kg i.p.) and in series [4] (50 mg/kg i.p.) was 0 in each case.
Turning to `CN1[C@H]2CC[C@@H]1[C@H](c1nc(-c3ccncc3)no1)[C@@H](c1ccc(Cl)c(Cl)c1)C2` [(1R,2R,3S)-2-(3-(4-Pyridyl)-1,2,4-oxadiazol-5-yl)-3-(3,4-dichlorophenyl)-tropane], the IC50 in series [1] was 69 nM. In addition, the minimal effective dose in series [2] was 0.25 mg/kg. Besides, the Activity is on record as 0 in series [3] (10 mg/kg i.p.), “++” in series [3] (100 mg/kg i.p.), “++” in series [4] (25 mg/kg i.p.) and “+” in series [4] (100 mg/kg p.o.).
With `COC(=O)[C@@H]1[C@@H](c2ccc(F)cc2)C[C@@H]2CC[C@H]1N2C` [trans isomer of Win 35,428, (1R,2R,3S)-2-carbomethoxy-3-(4-fluorophenyl)tropane, reference compound], in series [3] (at every relevant dosing level tested), the “side effects as measured by excitatory locomotor activity and rearing responses as well as by abnormal stereotyped behaviour” value is “essentially or totally devoid of side effects”. In addition, the dopamine releasing properties entry in series [5] is “essentially free of dopamine releasing properties”.

As a reminder, the IC50 is the concentration that inhibits the measured activity by half. Low readings indicate greater potency in that assay, high ones weaker potency in that assay.
